# What was measured:
# [1] = system: monocyte-derived dendritic cells (MDDC); assay: Cytokine production by monocyte-derived dendritic cells (ELISA); type: cell-based, human; conditions: purified MDDC; ODN 2 μM, LPS 100 ng/ml
# Protocol: Human dendritic cells (DC) have been claimed to be responsive to CpG-DNA. […] The converse was true for stimulation of monocyte-derived dendritic cells (MDDC) (FIG. 8 and unpublished data). […] IL-8 and TNF concentration was determined by enzyme-linked immunosorbent assay (ELISA). The CD123+DC response was DNA- and CpG-motif restricted. […] Due to this segregated response we analyzed TLR expression.
# murine splenocytes = assay: IL-12 production in murine splenocytes; type: cell-based; conditions: ODN titration, after 8 hours
# Text: By iterative examination of the flanking sequences surrounding CG dinucleotides, CpG-motifs have been identified. Paradoxically, or by twist of nature, the human optimal CpG-motif, GTCGTT (SEQ ID NO:66), is different from the murine motif, GACGTT (SEQ ID NO:129). Human peripheral blood mononuclear cells (PBMC) (FIG. 10A) and murine splenocytes (FIG. 10B) were stimulated with ODN 2006 (filled circle, […], SEQ ID NO:112), ODN 2006-GC (open circle), ODN 1668 (filled triangle, […], SEQ ID NO:84) or ODN 1668-GC (open triangle, […], SEQ ID NO:85) at indicated concentrations and IL-12 production was monitored after 8 hours. […] It should also be noted that the Kac (concentration of half-maximal activation) of murine splenocytes for 1668 was greater than human PBMC for 2006 (compare FIG. 10A to FIG. 10B).
sequence,measurement,setting,value
TCGTCGTTTTGTCGTTTTGTCGTT [ODN 2006],"response of MDDC (IL-8, TNF)",[1],not
same,IL-12 production,murine splenocytes,much less effective
"TCCATGACGTTCCTGATGCT (listed as DNA, chemistry not fully specified) [ODN 1668]",IL-12 production,murine splenocytes,induced optimal IL-12

# From patent publication US7820379B2, “Process for high throughput screening of CpG-based immuno-agonist/antagonist” (Coley Pharmaceutical GmbH, priority 2000, dated 2010)
